Source: the SangsterLogP compilation

test: method code SF-HPLC, from DOI: 10.1080/10826079308019563; settings: pH 11.0

logD | SMILES
1.23 | NC1=NCC(CN2CCN(c3ccc(C(F)(F)F)cc3)CC2)O1 (stereo not given)
1 | NC1=NCC(CN2CCN(c3ccc(F)cc3)CC2)O1 (stereo not given)
0.68 | COc1ccc(N2CCN(CC3CN=C(N)O3)CC2)cc1 (stereo not given)
1.83 | NC1=NCC(CN2CCN(c3cccc(Cl)c3)CC2)O1 (stereo not given)
0.21 | NC1=NCC(CN2CCN(c3ncccn3)CC2)O1 (stereo not given)
0.48 | NC1=NCC(CN2CCN(c3ccccn3)CC2)O1 (stereo not given)
2.4 | NC1=NCC(CN2CCN(c3ccc(Cl)c(Cl)c3)CC2)O1 (stereo not given)
1.87 | NC1=NCC(CN2CCN(c3ccccc3Cl)CC2)O1 (stereo not given)
1.71 | NC1=NCC(CN2CCN(c3ccc(Cl)cc3)CC2)O1 (stereo not given)
2.19 | Cc1cccc(N2CCN(CC3CN=C(N)O3)CC2)c1C (stereo not given)
0.87 | COc1cccc(N2CCN(CC3CN=C(N)O3)CC2)c1 (stereo not given)
0.76 | COc1ccccc1N1CCN(CC2CN=C(N)O2)CC1 (stereo not given)
1.21 | CCOc1ccccc1N1CCN(CC2CN=C(N)O2)CC1 (stereo not given)
0.85 | NC1=NCC(CN2CCN(c3ccccc3)CC2)O1 (stereo not given)
2.21 | NC1=NCC(CN2CCN(c3cccc(C(F)(F)F)c3)CC2)O1 (stereo not given)
